In US20260295053A1, “COMPOUNDS FOR DEGRADATION AND INHIBITION OF KRAS (G12D) PROTEIN” (Shenzhen Ionova Life Science Co., Ltd., priority 2023, published 2026):

Columns and labels:
KRAS (G12D) = molecular target: T1, KRAS (G12D) (Homo sapiens, UniProt P01116, G12D); assay: KRAS (G12D) cellular degradation assay in AsPC-1 cells; assay type: cell-based; conditions: 24 hours, antibody fluorescence (Odyssey CLX), DC50 half-maximal degradation concentration
T1 construct: in-cell western with KRAS G12D antibody after 24 h
Outline: (§1)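 Read-outs were KRAS G12D immunofluorescence against β-actin after 24 h (DC50) and CellTiter Glo luminescence after 6 days (IC50). Compounds were titrated 1:3 from […] to 1.5 nM final on AsPC-1 cells at 37 °C, 5% CO2.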

AsPC-1 cells = assay: AsPC-1 cell proliferation assay (CellTiter Glo); assay type: cell-based; conditions: Homo sapiens, ASPC1, 144 h, 6 days
Outline: as §1

T1 sequence (P01116 1-188 isoform P01116-2 G12D): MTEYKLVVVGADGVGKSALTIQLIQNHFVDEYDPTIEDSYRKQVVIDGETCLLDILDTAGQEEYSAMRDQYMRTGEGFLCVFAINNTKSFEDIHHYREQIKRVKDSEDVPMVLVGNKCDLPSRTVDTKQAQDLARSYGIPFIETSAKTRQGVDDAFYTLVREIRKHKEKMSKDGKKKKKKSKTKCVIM

| DC50 (KRAS (G12D)) | IC50 (AsPC-1 cells) | Structure (SMILES) |
| --- | --- | --- |
| < 10 nM | < 10 nM | CCn1nccc1-c1ccc([C@H](CO)NC(=O)[C@@H]2C[C@@H](O)CN2C(=O)[C@H](C(C)C)n2cc(-c3ccc(COc4c(-c5c(C)c(F)cc6[nH]ncc56)c(C5CC5)cc5c(N6CCCOCC6)nc(OC[C@H](C)OC)nc45)cc3)nn2)cc1 [Example 180, (2S,4R)-1-((2S)-2-(4-(4-(((6-cyclopropyl-7-(6-fluoro-5-methyl-1H-indazol-4-yl)-2-((S)-2-methoxypropoxy)-4-(1,4-oxazepan-4-yl)quinazolin-8-yl)oxy)methyl)phenyl)-1H-1,2,3-triazol-1-yl)-3-methylbutanoyl)-N—((R)-1-(4-(1-ethyl-1H-pyrazol-5-yl)phenyl)-2-hydroxyethyl)-4-hydroxypyrrolidine-2-carboxamide] |
| < 10 nM | < 10 nM | CCn1nccc1-c1ccc([C@@H](NC(=O)[C@@H]2C[C@@H](O)CN2C(=O)[C@H](C(C)C)n2cc(-c3ccc(COc4c(-c5c(C)c(F)cc6[nH]ncc56)c(C5CC5)cc5c(N6C[C@@H]7C[C@H]6CN7)nc(OC6CC7(COC7)C6)nc45)cc3)nn2)[C@H](C)O)cc1 [Example 100, (2S,4R)-1-((2S)-2-(4-(4-(((2-((2-oxaspiro[3.3]heptan-6-yl)oxy)-4-((1S,4S)-2,5-diazabicyclo[2.2.1]heptan-2-yl)-6-cyclopropyl-7-(6-fluoro-5-methyl-1H-indazol-4-yl)quinazolin-8-yl)oxy)methyl)phenyl)-1H-1,2,3-triazol-1-yl)-3-methylbutanoyl)-N-((1R,2S)-1-(4-(1-ethyl-1H-pyrazol-5-yl)phenyl)-2-hydroxypropyl)-4-hydroxypyrrolidine-2-carboxamide] |
| < 10 nM | < 10 nM | CCn1nccc1-c1ccc([C@@H](NC(=O)[C@@H]2C[C@@H](O)CN2C(=O)[C@H](C(C)C)n2cc(-c3ccc(COc4c(-c5c(C)c(F)cc6[nH]ncc56)c(C5CC5)cc5c(N6C[C@@H]7C[C@H]6CN7)nc(O[C@H]6CC[C@H](OC)CC6)nc45)cc3)nn2)[C@H](C)O)cc1 [Example 121, (2S,4R)-1-((2S)-2-(4-(4-(((4-((1S,4S)-2,5-diazabicyclo[2.2.1]heptan-2-yl)-6-cyclopropyl-7-(6-fluoro-5-methyl-1H-indazol-4-yl)-2-(((1r,4S)-4-methoxycyclohexyl)oxy)quinazolin-8-yl)oxy)methyl)phenyl)-1H-1,2,3-triazol-1-yl)-3-methylbutanoyl)-N-((1R,2S)-1-(4-(1-ethyl-1H-pyrazol-5-yl)phenyl)-2-hydroxypropyl)-4-hydroxypyrrolidine-2-carboxamide] |

| Structure (SMILES) | DC50 (KRAS (G12D)) | IC50 (AsPC-1 cells) |
| --- | --- | --- |
| CCn1nccc1-c1ccc([C@@H](NC(=O)[C@@H]2C[C@@H](O)CN2C(=O)[C@H](C(C)C)n2cc(-c3ccc(COc4c(-c5c(C)c(F)cc6[nH]ncc56)c(C5CC5)cc5c(N6C[C@@H]7C[C@H]6CN7)nc(O[C@H]6C[C@H](OC)C6)nc45)cc3)nn2)[C@@H](C)O)cc1 [Example 131, (2S,4R)-1-((2S)-2-(4-(4-(((4-((1S,4S)-2,5-diazabicyclo[2.2.1]heptan-2-yl)-6-cyclopropyl-7-(6-fluoro-5-methyl-1H-indazol-4-yl)-2-((1r,3S)-3-methoxycyclobutoxy)quinazolin-8-yl)oxy)methyl)phenyl)-1H-1,2,3-triazol-1-yl)-3-methylbutanoyl)-N-((1R,2R)-1-(4-(1-ethyl-1H-pyrazol-5-yl)phenyl)-2-hydroxypropyl)-4-hydroxypyrrolidine-2-carboxamide] | < 10 nM | < 10 nM |
